Measured values reported in patent US6184365A, “Anthracycline derivatives having 4-amino-2,4,6-trideoxy-2 fluoro-α-L-talopyranosyl group” (priority 1996, dated 2001).
Converted amounts (≈) assume the structure as drawn. “Also recorded” adds a separate entry of the source. Like-named read-outs stand apart in the source and are kept apart here.

Key:
[1] = earlier derivatives; comparison with daunomycin or adriamycin; cited from earlier work
[2] = earlier derivatives; cited from earlier work
[3] = test system: human nasopharyngeal carcinoma (KB); experiment: Growth inhibition of human nasopharyngeal carcinoma (KB); assay type: cell-based
Protocol: (§1) Adriamycin was used as a comparative compound and was tested in the same manner as above.
(§2) The different kinds of human cancer cells tested were six kinds indicated below, including human chronic myelogenous leukemia (K562), human vaginal melanoma (HMV-1), human nasopharyngeal carcinoma (KB), human gastric adenocarcinoma (MKN-1), human lung non-small cell carcinoma (PC-14) and human bladder carcinoma (T24).

[4] = test system: human chronic myelogenous leukemia (K562); experiment: Growth inhibition of human chronic myelogenous leukemia (K562); assay type: cell-based; details: for IC50: Homo sapiens
Protocol: as §1, §2

[5] = test system: adriamycin-resistant P388 cells (P388/ADR); experiment: Growth inhibition of adriamycin-resistant P388 cells (P388/ADR); assay type: cell-based, mouse; details: for IC50: Mus musculus
Protocol: as §1

[6] = test system: human bladder carcinoma (T24); experiment: Growth inhibition of human bladder carcinoma (T24); assay type: cell-based; details: for IC50: Homo sapiens
Protocol: as §1, §2

[7] = test system: mouse leukemia P388 cells; experiment: Growth inhibition of mouse leukemia P388 cells; assay type: cell-based
Protocol: as §1

[8] = test system: human gastric adenocarcinoma (MKN-1); experiment: Growth inhibition of human gastric adenocarcinoma (MKN-1); assay type: cell-based; details: for IC50: Homo sapiens
Protocol: as §1, §2

[9] = cited from earlier work
[10] = test system: human lung non-small cell carcinoma (PC-14); experiment: Growth inhibition of human lung non-small cell carcinoma (PC-14); assay type: cell-based; details: for IC50: Homo sapiens
Protocol: as §1, §2

[11] = test system: Leukemia L-1210 cells; experiment: Antitumor activity against leukemia in CDF1 mice inoculated with Leukemia L-1210 cells; assay type: in vivo, mouse; details: for Increase (%) in life-span (T/C, %): i.p., once a day for 9 days, as hydrochloride; for antitumor activity against mouse Leukemia L-1210 cell compared with adriamycin: low dosages
Protocol: Thus, to evaluate the antitumor effects of the novel compounds of this invention against experimental tumors in animals, CDF1 mice (four mice per group) were intraperitoneally inoculated with cells of Leukemia L-1210 at an amount of 1×10^5 cells/mouse. Since an elapse of 24 hours from the inoculation of the leukemia cells, a test compound of this invention was administered intraperitoneally to the mice under test once a day for consecutive 9 days, with the test compound being given as its hydrochloride in the form of a solution in a physiological saline. […] In the meanwhile, mice of the control group (the untreated group) were administered only with physiological saline after the inoculation of the L-1210 cells. During the observation period, the number of the surviving mice was counted for both the treated group and the control group, and the mean survival days of mice of both the treated group and the control group were calculated. Then, the percentages (%) of the increase in the life-span of the treated mice was estimated, as T/C (%), in terms of the mean survival day (C) of the untreated mice of the control group and the mean survival day (T) of the treated mice of the treated group. For comparison purposes, similar tests were effected using daunomycin (as hydrochloride) and adriamycin (as hydrochloride). The mean survival day of mice of the control group (the untreated group) was 8 to 9 days, and the mean survival day of mice of the comparative groups having received the administration of daunomycin or adriamycin usually varied dependently on the dosage of the compound tested.
Incidentally, in respect of the fractional numbers parenthesized below the numerical values of increase (%) in the life-span, the denominator of the fraction denotes the number of mice tested in one test group but the numerator of the fraction denotes the number of mice which survived for 60 days or longer.

[12] = test system: human vaginal melanoma (HMV-1); experiment: Growth inhibition of human vaginal melanoma (HMV-1); assay type: cell-based
Protocol: as §1, §2

[13] = Solubility in water; assay type: physicochemical
[14] = test system: various human cancer cells; experiment: in vitro tests against various human cancer cells; assay type: cell-based; details: for antitumor or anticancer activity compared with adriamycin: human cancer cells as well as mouse leukemia P388 and P388/ADR cells; for anticancer activities against various human cancer cells compared with adriamycin: in vitro
Protocol: as §1, §2

[15] = test system: mouse Leukemia L-1210 cell; details: in vivo, cited from earlier work
[16] = test system: various human cancer cells; details: in vitro; cited from earlier work
[17] = MKN-1, 72 hours, read-out: IC50
[18] = PC-14, 72 hours, read-out: IC50
[19] = HMV-1, 72 hours, read-out: IC50

COc1cccc2c1C(=O)c1c(O)c3c(c(O)c1C2=O)C[C@@](O)(C(=O)CO)C[C@@H]3O[C@@H]1O[C@@H](C)[C@@H](O)[C@@H](O)[C@H]1F [7-O-(2,6-Dideoxy-2-fluoro-α-L-talopyranosyl)adriamycinone]
antitumor activity [1]: remarkable antitumor activity | solubility in water [2]: barely soluble in water

COc1cccc2c1C(=O)c1c(O)c3c(c(O)c1C2=O)C[C@@](O)(C(=O)CO)C[C@@H]3O[C@@H]1O[C@@H](C)[C@@H](O)[C@@H](N)[C@H]1F [7-O-(3-amino-2,3,6-trideoxy-2-fluoro-α-L-talopyranosyl)adriamycinone]
antitumor activity [1]: antitumor activity a little higher than that of the latter | solubility in water [2]: soluble in water

COc1cccc2c1C(=O)c1c(O)c3c(c(O)c1C2=O)C[C@@](O)(C(=O)CO)C[C@@H]3O[C@H]1C[C@H](N)[C@H](O)[C@H](C)O1 [Adriamycin, reference compound]
IC50 ([3]; 72 h): 0.05 µg/mL (≈ 0.092 µM) | IC50 ([4]; K562, 72 h): 0.39 µg/mL (≈ 0.718 µM) | IC50 ([5]; 72 h): 2.5 µg/mL (≈ 4.6 µM) | IC50 ([6]; 72 h): 0.16 µg/mL (≈ 0.294 µM) | IC50 ([7]; P388, 72 h): 0.032 µg/mL (≈ 0.0589 µM) | IC50 ([8]; MKN-1, 72 h): 0.25 µg/mL (≈ 0.46 µM) | side-effects ([9]; clinical treatment of cancer-bearing patients): serious side-effects such as leukocytopenia, alopecia, myocardiopathy and others | IC50 ([10]; PC-14, 72 h): 0.62 µg/mL (≈ 1.14 µM) | Increase (%) in life-span (T/C, %) ([11]; 0.15 mg/kg/day): 140% | Increase (%) in life-span (T/C, %) ([11]; 0.3 mg/kg/day): 132% | Increase (%) in life-span (T/C, %) ([11]; 0.6 mg/kg/day): 208% | Increase (%) in life-span (T/C, %) ([11]; 1.25 mg/kg/day): 330% | Increase (%) in life-span (T/C, %) ([11]; 2.5 mg/kg/day): 273% | Increase (%) in life-span (T/C, %) ([11]; 5 mg/kg/day): 177% | development of toxicity in words ([11]; 2.5 to 5 mg/kg/day): accompanied by the development of toxicity | percentages of increase in the life-span (T/C, %) ([11]; 2.5 to 5 mg/kg/day): about 330% | IC50 ([12]; 72 h): 0.14 µg/mL (≈ 0.258 µM)

COc1cccc2c1C(=O)c1c(O)c3c(c(O)c1C2=O)C[C@@](O)(C(C)=O)C[C@@H]3O[C@@H]1O[C@@H](C)[C@@H](N)[C@@H](O)[C@H]1F [Compound (a), 7-O-(4-amino-2,4,6-trideoxy-2-fluoro-α-L-talopyranosyl)daunomycinone]
IC50 ([3]; KB, 72 hours, read-out: IC50): 0.028 µg/mL (≈ 0.0513 µM) | solubility [13]: 10 mg/mL (≈ 18300 µM) | IC50 ([4]; K562, 72 hours, read-out: IC50): 0.087 µg/mL (≈ 0.159 µM) | antitumor or anticancer activity compared with adriamycin [14]: higher antitumor or anticancer activities than those of adriamycin | anticancer activities against various human cancer cells compared with adriamycin [14]: remarkably improved anticancer activities | anticancer activity, folds higher than that of adriamycin [5]: 29.1 folds | IC50 ([5]; 72 hours, read-out: IC50): 0.086 µg/mL (≈ 0.158 µM) | IC50 ([6]; T24, 72 hours, read-out: IC50): 0.047 µg/mL (≈ 0.0862 µM) | IC50 ([7]; P388, 72 hours, read-out: IC50): < 0.0098 µg/mL | IC50 [8, 17]: 0.12 µg/mL (≈ 0.22 µM) | IC50 [10, 18]: 0.17 µg/mL (≈ 0.312 µM) | Increase (%) in life-span (T/C, %) ([11]; 0.15 mg/kg/day): 127% | Increase (%) in life-span (T/C, %) ([11]; 0.3 mg/kg/day): 152% | Increase (%) in life-span (T/C, %) ([11]; 0.6 mg/kg/day): 182% | number of mice which survived for 60 days or longer / number tested ([11]; 1.25 mg/kg/day): 2/4 | Increase (%) in life-span (T/C, %) ([11]; 1.25 mg/kg/day): > 463% | Increase (%) in life-span (T/C, %) ([11]; 2.5 mg/kg/day): 235% | Increase (%) in life-span (T/C, %) ([11]; 5 mg/kg/day): 175% | antitumor activity compared with daunomycin ([11]; 0.6~1.25 mg/kg): antitumor activities higher than those of daunomycin | antitumor activity against mouse Leukemia L-1210 cell compared with adriamycin [11]: substantially equal to or higher than that of adriamycin | IC50 [12, 19]: 0.071 µg/mL (≈ 0.13 µM)

COc1cccc2c1C(=O)c1c(O)c3c(c(O)c1C2=O)C[C@@](O)(C(=O)CO)C[C@@H]3O[C@@H]1O[C@@H](C)[C@@H](N)[C@@H](O)[C@H]1F [Compound (b), 7-O-(4-amino-2,4,6-trideoxy-2-fluoro-α-L-talopyranosyl)adriamycinone]
IC50 ([3]; KB, 72 hours, read-out: IC50): 0.023 µg/mL (≈ 0.041 µM) | solubility [13]: 15 mg/mL (≈ 26700 µM) | IC50 ([4]; K562, 72 hours, read-out: IC50): 0.063 µg/mL (≈ 0.112 µM) | anticancer activity, folds higher than that of adriamycin ([4]; K562): 6.2 folds | antitumor or anticancer activity compared with adriamycin [14]: higher antitumor or anticancer activities than those of adriamycin | anticancer activities against various human cancer cells compared with adriamycin [14]: remarkably improved anticancer activities | anticancer activity, folds higher than that of adriamycin [5]: 13.9 folds | IC50 ([5]; 72 hours, read-out: IC50): 0.18 µg/mL (≈ 0.321 µM) | IC50 ([6]; T24, 72 hours, read-out: IC50): 0.026 µg/mL (≈ 0.0463 µM) | anticancer activity, folds higher than that of adriamycin ([6]; T24): 6.2 folds | IC50 ([7]; P388, 72 hours, read-out: IC50): < 0.0098 µg/mL | IC50 [8, 17]: 0.062 µg/mL (≈ 0.11 µM) | anticancer activity, folds higher than that of adriamycin ([8]; MKN-1): 4 folds | IC50 [10, 18]: 0.12 µg/mL (≈ 0.214 µM) | anticancer activity, folds higher than that of adriamycin ([10]; PC-14): 5.2 folds | antitumor activity (T/C, %) compared with daunomycin ([11]; 0.15 mg/kg to 0.6 mg/kg): remarkably enhanced anticancer or antitumor activities | Increase (%) in life-span (T/C, %) ([11]; 0.15 mg/kg/day): 155% | development of toxicity in words ([11]; 0.3 mg/kg to 0.6 mg/kg): did not involve the development of toxicity; also recorded: the development of toxicities is not involved | number of mice which survived for 60 days or longer / number tested ([11]; 0.3 mg/kg/day): 1/4 | Increase (%) in life-span (T/C, %) ([11]; 0.3 mg/kg/day): > 400% | number of the mice surviving for 60 days (fully cured) ([11]; 0.3 mg/kg~0.6 mg/kg, pooled): two in eight | number of mice which survived for 60 days or longer / number tested ([11]; 0.6 mg/kg/day): 1/4 | Increase (%) in life-span (T/C, %) ([11]; 0.6 mg/kg/day): > 403% | number of mice which survived for 60 days or longer / number tested ([11]; 1.25 mg/kg/day): 1/4 | Increase (%) in life-span (T/C, %) ([11]; 1.25 mg/kg/day): > 330% | Increase (%) in life-span (T/C, %) ([11]; 2.5 mg/kg/day): 139% | Increase (%) in life-span (T/C, %) ([11]; 5 mg/kg/day): 92% | antitumor activity compared with adriamycin ([11]; 0.3~0.6 mg/kg, adriamycin at 0.3~0.6 mg/kg): markedly enhanced anticancer or antitumor activities | antitumor activity against mouse Leukemia L-1210 cell compared with adriamycin [11]: substantially equal to or higher than that of adriamycin | IC50 [12, 19]: 0.056 µg/mL (≈ 0.0997 µM)

COc1cccc2c1C(=O)c1c(O)c3c(c(O)c1C2=O)C[C@@](O)(C(C)=O)C[C@@H]3O[C@H]1C[C@H](N)[C@H](O)[C@H](C)O1 [Daunomycin, reference compound]
side-effects ([9]; human, in vivo): serious side-effects such as leukocytopenia, alopecia, myocardiopathy and others | Increase (%) in life-span (T/C, %) ([11]; 0.15 mg/kg/day): 132% | Increase (%) in life-span (T/C, %) ([11]; 0.3 mg/kg/day): 112% | Increase (%) in life-span (T/C, %) ([11]; 0.6 mg/kg/day): 145% | Increase (%) in life-span (T/C, %) ([11]; 1.25 mg/kg/day): 158% | Increase (%) in life-span (T/C, %) ([11]; 2.5 mg/kg/day): 171% | Increase (%) in life-span (T/C, %) ([11]; 5 mg/kg/day): 138% | development of toxicity in words ([11]; 2.5 to 5 mg/kg/day): accompanied by the development of toxicity

COc1cccc2c1C(=O)c1c(O)c3c(c(O)c1C2=O)C[C@@](O)(C(=O)CO)C[C@@H]3O[C@@H]1O[C@@H](C)[C@H](N)[C@@H](O)[C@H]1F [compound of the formula (D-b), 7-O-(4-amino-2,4,6-trideoxy-2-fluoro-α-L-mannopyranosyl)adriamycinone]
antitumor activity against mouse Leukemia L-1210 cell over adriamycin ([15]; low dosages): remarkably improved antitumor activity | antitumor activity against experimental tumors in animals [15]: remarkably high antitumor activity | anticancer activity against various human cancer cells compared with adriamycin [16]: substantially as high as those of adriamycin | solubility in water [2]: soluble in water
